Source: patent US11014934B2, “Antiseptic drug” (AO “TATKHIMFARMPREPARATY”, priority 2017, dated 2021)
Where two headings read alike, the source gives them in different places.

What was measured:
Assay in all cases: MIC, serial dilutions in Müller-Hinton broth
Format in all cases: cell-based
E. faecium 4403 = system: E. faecium 4403
Procedure, shortened: (§1)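 Broth microdilution in Müller-Hinton broth following MUK 4.2.1890-04, with two-fold compound dilutions at final 1-128 ug/ml. The inoculum was set to 0.5 McFarland and diluted to 10^7 CFU/ml before addition, then plates were incubated at 37° C. for 24 hours. MIC was the lowest concentration without visible growth, taking the highest of three independent runs.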

Acinetobacter spp. 4 = system: Acinetobacter spp. 4
Procedure, shortened: as §1

E. coli MG 1655 = system: E. coli MG 1655
Procedure, shortened: as §1

S. aureus 1053 MRSA = system: S. aureus 1053 MRSA
Procedure, shortened: as §1

S. aureus 981 MRSA = system: S. aureus 981 MRSA
Procedure, shortened: as §1

E. faecium 28 = system: E. faecium 28
Procedure, shortened: as §1

E. coli 13 = system: E. coli 13
Procedure, shortened: as §1

S. aureus 22 = system: S. aureus 22
Procedure, shortened: as §1

Moraxella sp. 713 = system: Moraxella sp. 713
Procedure, shortened: as §1

S. aureus 1134 MRSA = system: S. aureus 1134 MRSA
Procedure, shortened: as §1

E. faecium 24 = system: E. faecium 24
Procedure, shortened: as §1

S. aureus 1053a = system: S. aureus 1053a
Procedure, shortened: as §1

Pseudomonas spp. 5 = system: Pseudomonas spp. 5
Procedure, shortened: as §1

S. aureus ATCC 29213 = system: S. aureus ATCC 29213
Procedure, shortened: as §1

Ps. aeruginosa 1202 = system: Ps. aeruginosa 1202
Procedure, shortened: as §1

E. faecium 3062 = system: E. faecium 3062
Procedure, shortened: as §1

E. faecalis 23 = system: E. faecalis 23
Procedure, shortened: as §1

S. intermedius 1061 MRSI = system: S. intermedius 1061 MRSI
Procedure, shortened: as §1

Ps. aeruginosa 2869 = system: Ps. aeruginosa 2869
Procedure, shortened: as §1

S. aureus 19 = system: S. aureus 19
Procedure, shortened: as §1

E. faecium 30 = system: E. faecium 30
Procedure, shortened: as §1

Compound: CCCCCCCCCCCC[N+](C)(C)Cc1cnc(C[N+](C)(C)CCCCCCCCCCCC)c2c1COC(CC)O2 (stereo not drawn) [Compound I, 5,8-(Bis(methylene (N, N-dimethyl-N-dodecylammonium))-2-ethyl-4H-[1,3]dioxino [4,5-c]pyridiniumdichloride]
- MIC (E. faecium 4403; Enterococcus faecium, E. faecium 4403, inoculum 10^7 CFU/ml, read-out: MIC): 0.03 µg/mL
- MIC (Acinetobacter spp. 4; Acinetobacter spp. 4, inoculum 10^7 CFU/ml, read-out: MIC): 8 µg/mL
- MIC (E. coli MG 1655; Escherichia coli, MG1655, E. coli MG 1655, inoculum 10^7 CFU/ml, read-out: MIC): 2 µg/mL
- MIC (S. aureus 1053 MRSA; Staphylococcus aureus, S. aureus 1053 MRSA, inoculum 10^7 CFU/ml, read-out: MIC): 2 µg/mL
- MIC (S. aureus 981 MRSA; Staphylococcus aureus, S. aureus 981 MRSA, inoculum 10^7 CFU/ml, read-out: MIC): 4 µg/mL
- MIC (E. faecium 28; Enterococcus faecium, E. faecium 28, inoculum 10^7 CFU/ml, read-out: MIC): 0.03 µg/mL
- MIC (E. coli 13; Escherichia coli, E. coli 13, inoculum 10^7 CFU/ml, read-out: MIC): 8 µg/mL
- MIC (S. aureus 22; Staphylococcus aureus, S. aureus 22, inoculum 10^7 CFU/ml, read-out: MIC): 1 µg/mL
- MIC (Moraxella sp. 713; Moraxella sp. 713, inoculum 10^7 CFU/ml, read-out: MIC): 8 µg/mL
- MIC (S. aureus 1134 MRSA; Staphylococcus aureus, S. aureus 1134 MRSA, inoculum 10^7 CFU/ml, read-out: MIC): 2 µg/mL
- MIC (E. faecium 24; Enterococcus faecium, E. faecium 24, inoculum 10^7 CFU/ml, read-out: MIC): 0.03 µg/mL
- MIC (S. aureus 1053a; Staphylococcus aureus, S. aureus 1053a, inoculum 10^7 CFU/ml, read-out: MIC): 2 µg/mL
- MIC (Pseudomonas spp. 5; Pseudomonas spp. 5, inoculum 10^7 CFU/ml, read-out: MIC): 8 µg/mL
- MIC (S. aureus ATCC 29213; Staphylococcus aureus, ATCC29213, S. aureus ATCC 29213, inoculum 10^7 CFU/ml, read-out: MIC): 4 µg/mL
- MIC (Ps. aeruginosa 1202; Pseudomonas aeruginosa, Ps. aeruginosa 1202, inoculum 10^7 CFU/ml, read-out: MIC): 32 µg/mL
- MIC (E. faecium 3062; Enterococcus faecium, E. faecium 3062, inoculum 10^7 CFU/ml, read-out: MIC): 0.5 µg/mL
- MIC (E. faecalis 23; Enterococcus faecalis, E. faecalis 23, inoculum 10^7 CFU/ml, read-out: MIC): 0.03 µg/mL
- MIC (S. intermedius 1061 MRSI; S. intermedius 1061 MRSI, inoculum 10^7 CFU/ml, read-out: MIC): 1 µg/mL
- MIC (Ps. aeruginosa 2869; Pseudomonas aeruginosa, Ps. aeruginosa 2869, inoculum 10^7 CFU/ml, read-out: MIC): 32 µg/mL
- MIC (S. aureus 19; Staphylococcus aureus, S. aureus 19, inoculum 10^7 CFU/ml, read-out: MIC): 2 µg/mL
- MIC (E. faecium 30; Enterococcus faecium, E. faecium 30, inoculum 10^7 CFU/ml, read-out: MIC): 0.03 µg/mL

Compound: CCCCCCCCCCCCCC(=O)NCCC[N+](C)(C)Cc1ccccc1.O.[Cl-] [Miramistin, benzyldimethyl [3-(myristoylamino)propyl]-ammonium chloride monohydrate]
- MIC (E. faecium 4403; Enterococcus faecium, 4403): 64 µg/mL
- MIC (Acinetobacter spp. 4; Acinetobacter, SPP.4): > 64 µg/mL
- MIC (E. coli MG 1655; Escherichia coli, MG1655): 8 µg/mL
- MIC (S. aureus 1053 MRSA; Staphylococcus aureus, MRSA): 4 µg/mL
- MIC (S. aureus 981 MRSA; Staphylococcus aureus, MRSA): 4 µg/mL
- MIC (E. faecium 28; Enterococcus faecium, 28): 32 µg/mL
- MIC (E. coli 13; Escherichia coli, 13): 32 µg/mL
- MIC (S. aureus 22; Staphylococcus aureus, 22): 8 µg/mL
- MIC (Moraxella sp. 713; Moraxella, SP.713): 32 µg/mL
- MIC (S. aureus 1134 MRSA; Staphylococcus aureus, MRSA): 8 µg/mL
- MIC (E. faecium 24; Enterococcus faecium, 24): 16 µg/mL
- MIC (S. aureus 1053a; Staphylococcus aureus, 1053A): 4 to 8 µg/mL
- MIC (Pseudomonas spp. 5; Pseudomonas, SPP.5): > 64 µg/mL
- MIC (S. aureus ATCC 29213; Staphylococcus aureus, ATCC29213): 16 µg/mL
- MIC (Ps. aeruginosa 1202; Pseudomonas aeruginosa, 1202): > 64 µg/mL
- MIC (E. faecium 3062; Enterococcus faecium, 3062): 0.5 µg/mL
- MIC (E. faecalis 23; Enterococcus faecalis, 23): 4 µg/mL
- MIC (S. intermedius 1061 MRSI): 8 µg/mL
- MIC (Ps. aeruginosa 2869; Pseudomonas aeruginosa, 2869): 64 µg/mL
- MIC (S. aureus 19; Staphylococcus aureus, 19): 16 µg/mL
- MIC (E. faecium 30; Enterococcus faecium, 30): < 0.5 µg/mL

Compound: alkyldimethyl(phenylmethyl) ammonium chloride [Benzalconium chloride]
- MIC (E. faecium 4403; E. faecium 4403, inoculum 10^7 CFU/ml): 2 µg/mL
- MIC (Acinetobacter spp. 4; Acinetobacter spp. 4, inoculum 10^7 CFU/ml): 4 µg/mL
- MIC (E. coli MG 1655; E. coli MG 1655, inoculum 10^7 CFU/ml): 2 µg/mL
- MIC (S. aureus 1053 MRSA; S. aureus 1053 MRSA, inoculum 10^7 CFU/ml): 4 µg/mL
- MIC (S. aureus 981 MRSA; S. aureus 981 MRSA, inoculum 10^7 CFU/ml): 4 µg/mL
- MIC (E. faecium 28; E. faecium 28, inoculum 10^7 CFU/ml): <0.5 µg/mL
- MIC (E. coli 13; E. coli 13, inoculum 10^7 CFU/ml): 2 µg/mL
- MIC (S. aureus 22; S. aureus 22, inoculum 10^7 CFU/ml): <0.5 µg/mL
- MIC (Moraxella sp. 713; Moraxella sp. 713, inoculum 10^7 CFU/ml): 4 µg/mL
- MIC (S. aureus 1134 MRSA; S. aureus 1134 MRSA, inoculum 10^7 CFU/ml): 2 µg/mL
- MIC (E. faecium 24; E. faecium 24, inoculum 10^7 CFU/ml): <0.5 µg/mL
- MIC (S. aureus 1053a; S. aureus 1053a, inoculum 10^7 CFU/ml): 1 µg/mL
- MIC (Pseudomonas spp. 5; Pseudomonas spp. 5, inoculum 10^7 CFU/ml): 32 µg/mL
- MIC (S. aureus ATCC 29213; S. aureus ATCC 29213, inoculum 10^7 CFU/ml): 2 µg/mL
- MIC (Ps. aeruginosa 1202; Ps. aeruginosa 1202, inoculum 10^7 CFU/ml): >64 µg/mL
- MIC (E. faecium 3062; E. faecium 3062, inoculum 10^7 CFU/ml): 1 µg/mL
- MIC (E. faecalis 23; E. faecalis 23, inoculum 10^7 CFU/ml): <0.5 µg/mL
- MIC (S. intermedius 1061 MRSI; S. intermedius 1061 MRSI, inoculum 10^7 CFU/ml): 4 µg/mL
- MIC (Ps. aeruginosa 2869; Ps. aeruginosa 2869, inoculum 10^7 CFU/ml): 64 µg/mL
- MIC (S. aureus 19; S. aureus 19, inoculum 10^7 CFU/ml): <0.5 µg/mL
- MIC (E. faecium 30; E. faecium 30, inoculum 10^7 CFU/ml): <0.5 µg/mL
